Reference: patent publication US20180051017A1, “AGENT FOR TREATMENT OF SCHIZOPHRENIA” (Sumitomo Dainippon Pharma Co., Ltd., priority 2002, published 2018)
Counter-ions that a name gives are not always drawn.

System: patients with schizophrenia in the acute exacerbation phase
Experiment: First stage phase II clinical trial: safety (adverse events, serious adverse events, side effects, ECG, laboratory tests)
Assay type: in vivo, human
Procedure: According to the procedures as shown in Table 1 as described below, the placebo-controlled double blind experiment was done on 149 patients with schizophrenia in the acute exacerbation phase at 15 facilities in USA. The efficacy and safeness were studied when SM-13496 at a dose of 40 mg or 120 mg, or a placebo was orally administered once a day for 6 weeks after placebo washout.

[1] = 120 mg orally once a day for 6 weeks, 49 subjects

O=C1[C@@H]2[C@@H]3CC[C@@H](C3)[C@@H]2C(=O)N1C[C@@H]1CCCC[C@H]1CN1CCN(c2nsc3ccccc23)CC1 [SM-13496, (1R,2S,3R,4S)-N-[(1R,2R)-2-[4-(1,2-benzoisothiazol-3-yl)-1-piperazinyl-methyl]-1-cyclohexylmethyl]-2,3-bicyclo[2.2.1]heptanedicarboximide hydrochloride]
Number of subjects showing serious adverse events (%) [1]: 3 (6) number of subjects (%) | Number of subjects who drop out from the trial due to adverse events (%) [1]: 6 (12) number of subjects (%) | Occurrence of adverse event: Akathisia (120 mg, 6 weeks, 49 subjects): 7 (14) number of subjects (%) | Occurrence of adverse event: Digestive disturbance (120 mg, 6 weeks, 49 subjects): 2 (4) number of subjects (%) | Occurrence of adverse event: Drowsiness (120 mg, 6 weeks, 49 subjects): 5 (10) number of subjects (%) | Occurrence of adverse event: Exacerbation of schizophrenia (120 mg, 6 weeks, 49 subjects): 1 (2) number of subjects (%) | Occurrence of adverse event: Free-floating vertigo (excluding rotatory vertigo) (120 mg, 6 weeks, 49 subjects): 5 (10) number of subjects (%) | Occurrence of adverse event: Headache (120 mg, 6 weeks, 49 subjects): 3 (6) number of subjects (%) | Occurrence of adverse event: Nausea (120 mg, 6 weeks, 49 subjects): 11 (22) number of subjects (%) | Occurrence of adverse event: Suppression (120 mg, 6 weeks, 49 subjects): 7 (14) number of subjects (%) | Occurrence of serious adverse event: Exacerbation of paranoia (120 mg, 6 weeks, 49 subjects): 0 (0) number of subjects (%) | Occurrence of serious adverse event: Exacerbation of schizophrenia (120 mg, 6 weeks, 49 subjects): 1 (2) number of subjects (%) | Occurrence of serious adverse event: Paranoid schizophrenia (120 mg, 6 weeks, 49 subjects): 1 (2) number of subjects (%) | Occurrence of serious adverse event: Psychosis aggravated (120 mg, 6 weeks, 49 subjects): 0 (0) number of subjects (%) | Occurrence of side effects (%) (120 mg, 6 weeks, 49 subjects): 35 (71) number of subjects (%) | Serious adverse events: Total (%) (120 mg, 6 weeks, 49 subjects): 2 (4) number of subjects (%) | Side effect: Abdominal pain (Gastroenteric disturbance) (120 mg, 6 weeks, 49 subjects): 0 (0) number of subjects (%) | Side effect: Abnormal electrocardiogram (Laboratory assay) (120 mg, 6 weeks, 49 subjects): 0 (0) number of subjects (%) | Side effect: Abnormal liver function tests (Laboratory assay) (120 mg, 6 weeks, 49 subjects): 1 (2) number of subjects (%) | Side effect: Agitation (Mental disturbance) (120 mg, 6 weeks, 49 subjects): 1 (2) number of subjects (%) | Side effect: Agitation aggravated (Mental disturbance) (120 mg, 6 weeks, 49 subjects): 2 (4) number of subjects (%) | Side effect: Akathisia (Nervous system disorder) (120 mg, 6 weeks, 49 subjects): 7 (14) number of subjects (%) | Side effect: Akathisia aggravated (Nervous system disorder) (120 mg, 6 weeks, 49 subjects): 0 (0) number of subjects (%) | Side effect: Anarthria (Nervous system disorder) (120 mg, 6 weeks, 49 subjects): 1 (2) number of subjects (%) | Side effect: Anorexia (Metabolic disturbances and nutritional disturbance) (120 mg, 6 weeks, 49 subjects): 0 (0) number of subjects (%) | Side effect: Anxiety aggravated (Mental disturbance) (120 mg, 6 weeks, 49 subjects): 0 (0) number of subjects (%) | Side effect: Articular rigidity (Musculoskeletal system and connective tissue disorder) (120 mg, 6 weeks, 49 subjects): 0 (0) number of subjects (%) | Side effect: Blurred vision (Ocular disturbance) (120 mg, 6 weeks, 49 subjects): 1 (2) number of subjects (%) | Side effect: Breathing difficulty (Disturbance in respiratory organ, chest and mediastinum) (120 mg, 6 weeks, 49 subjects): 1 (2) number of subjects (%) | Side effect: Cervical rigidity (Musculoskeletal system and connective tissue disorder) (120 mg, 6 weeks, 49 subjects): 0 (0) number of subjects (%) | Side effect: Cogwheel rigidity (Nervous system disorder) (120 mg, 6 weeks, 49 subjects): 1 (2) number of subjects (%) | Side effect: Constipation (Gastroenteric disturbance) (120 mg, 6 weeks, 49 subjects): 0 (0) number of subjects (%) | Side effect: Decrease in appetite (Metabolic disturbances and nutritional disturbance) (120 mg, 6 weeks, 49 subjects): 1 (2) number of subjects (%) | Side effect: Diarrhea (Gastroenteric disturbance) (120 mg, 6 weeks, 49 subjects): 0 (0) number of subjects (%) | Side effect: Drowsiness (Nervous system disorder) (120 mg, 6 weeks, 49 subjects): 5 (10) number of subjects (%) | Side effect: Dry eye (Ocular disturbance) (120 mg, 6 weeks, 49 subjects): 0 (0) number of subjects (%) | Side effect: Dry mouth (Gastroenteric disturbance) (120 mg, 6 weeks, 49 subjects): 0 (0) number of subjects (%) | Side effect: Dyspepsia (Gastroenteric disturbance) (120 mg, 6 weeks, 49 subjects): 2 (4) number of subjects (%) | Side effect: Dystonic reaction (Nervous system disorder) (120 mg, 6 weeks, 49 subjects): 0 (0) number of subjects (%) | Side effect: Exacerbation of insomnia (Mental disturbance) (120 mg, 6 weeks, 49 subjects): 1 (2) number of subjects (%) | Side effect: External otitis (Infection and parasitosis) (120 mg, 6 weeks, 49 subjects): 0 (0) number of subjects (%) | Side effect: Extrapyramidal disease (Nervous system disorder) (120 mg, 6 weeks, 49 subjects): 3 (6) number of subjects (%) | Side effect: Fatigue (Total disability and local condition) (120 mg, 6 weeks, 49 subjects): 1 (2) number of subjects (%) | Side effect: Fatigue aggravated (Total disability and local condition) (120 mg, 6 weeks, 49 subjects): 0 (0) number of subjects (%) | Side effect: Flatulence (Gastroenteric disturbance) (120 mg, 6 weeks, 49 subjects): 0 (0) number of subjects (%) | Side effect: Flushing (Vascular diseases) (120 mg, 6 weeks, 49 subjects): 0 (0) number of subjects (%) | Side effect: Free-floating vertigo (excluding rotatory vertigo) (Nervous system disorder) (120 mg, 6 weeks, 49 subjects): 5 (10) number of subjects (%) | Side effect: Frequent urination (Renal Injury and urinary disorder) (120 mg, 6 weeks, 49 subjects): 0 (0) number of subjects (%) | Side effect: Glossoplegia (Nervous system disorder) (120 mg, 6 weeks, 49 subjects): 0 (0) number of subjects (%) | Side effect: Headache (Nervous system disorder) (120 mg, 6 weeks, 49 subjects): 1 (2) number of subjects (%) | Side effect: Heavy feeling (Musculoskeletal system and connective tissue disorder) (120 mg, 6 weeks, 49 subjects): 0 (0) number of subjects (%) | Side effect: Hot flashes (Vascular diseases) (120 mg, 6 weeks, 49 subjects): 1 (2) number of subjects (%) | Side effect: Hot sensation (Total disability and local condition) (120 mg, 6 weeks, 49 subjects): 0 (0) number of subjects (%) | Side effect: Increase in creatine phosphokinase level in the blood (Laboratory assay) (120 mg, 6 weeks, 49 subjects): 0 (0) number of subjects (%) | Side effect: Increase in prolactin level in the blood (Laboratory assay) (120 mg, 6 weeks, 49 subjects): 1(2) number of subjects (%) | Side effect: Increase in total protein (Laboratory assay) (120 mg, 6 weeks, 49 subjects): 0 (0) number of subjects (%) | Side effect: Insomnia (Mental disturbance) (120 mg, 6 weeks, 49 subjects): 1 (2) number of subjects (%) | Side effect: Laryngopharynx pain (Disturbance in respiratory organ, chest and mediastinum) (120 mg, 6 weeks, 49 subjects): 0 (0) number of subjects (%) | Side effect: Loose stools (Gastroenteric disturbance) (120 mg, 6 weeks, 49 subjects): 1 (2) number of subjects (%) | Side effect: Melalgia (Musculoskeletal system and connective tissue disorder) (120 mg, 6 weeks, 49 subjects): 1 (2) number of subjects (%) | Side effect: Muscle stiffness (Musculoskeletal system and connective tissue disorder) (120 mg, 6 weeks, 49 subjects): 1 (2) number of subjects (%) | Side effect: Myalgic pain (Musculoskeletal system and connective tissue disorder) (120 mg, 6 weeks, 49 subjects): 1 (2) number of subjects (%) | Side effect: Nausea (Gastroenteric disturbance) (120 mg, 6 weeks, 49 subjects): 9 (18) number of subjects (%) | Side effect: Nightmare (Mental disturbance) (120 mg, 6 weeks, 49 subjects): 1 (2) number of subjects (%) | Side effect: Palpitation (Heart problems) (120 mg, 6 weeks, 49 subjects): 1 (2) number of subjects (%) | Side effect: Parotiditis (Infection and parasitosis) (120 mg, 6 weeks, 49 subjects): 0 (0) number of subjects (%) | Side effect: Polyuria (Renal Injury and urinary disorder) (120 mg, 6 weeks, 49 subjects): 0 (0) number of subjects (%) | Side effect: Pruritus (Disturbance in Skin and Hypodermis) (120 mg, 6 weeks, 49 subjects): 0 (0) number of subjects (%) | Side effect: Psychosis aggravated (Mental disturbance) (120 mg, 6 weeks, 49 subjects): 2 (4) number of subjects (%) | Side effect: Restlessness (Mental disturbance) (120 mg, 6 weeks, 49 subjects): 1 (2) number of subjects (%) | Side effect: Salivary hypersecretion (Gastroenteric disturbance) (120 mg, 6 weeks, 49 subjects): 0 (0) number of subjects (%) | Side effect: Sinus tachycardia (Heart problems) (120 mg, 6 weeks, 49 subjects): 1 (2) number of subjects (%) | Side effect: Sleepiness (Total disability and local condition) (120 mg, 6 weeks, 49 subjects): 2 (4) number of subjects (%) | Side effect: Suppression (Nervous system disorder) (120 mg, 6 weeks, 49 subjects): 7 (14) number of subjects (%) | Side effect: Tinea pedis (Infection and parasitosis) (120 mg, 6 weeks, 49 subjects): 1 (2) number of subjects (%) | Side effect: Tongue disturbance (Gastroenteric disturbance) (120 mg, 6 weeks, 49 subjects): 0 (0) number of subjects (%) | Side effect: Tremor (Nervous system disorder) (120 mg, 6 weeks, 49 subjects): 3 (6) number of subjects (%) | Side effect: Trismus (Nervous system disorder) (120 mg, 6 weeks, 49 subjects): 1 (2) number of subjects (%) | Side effect: Urinary tract infection (Infection and parasitosis) (120 mg, 6 weeks, 49 subjects): 0 (0) number of subjects (%) | Side effect: Vomiting (Gastroenteric disturbance) (120 mg, 6 weeks, 49 subjects): 3 (6) number of subjects (%) | Side effect: Weight loss (Laboratory assay) (120 mg, 6 weeks, 49 subjects): 2 (4) number of subjects (%) | Akathisia (adverse event) (120 mg-treated group): 14% | Digestive disturbance compared to the placebo-treated group (120 mg-treated group): less observed | Exacerbation of schizophrenia (adverse event) (120 mg-treated group): 2% | Nausea compared to the other groups (120 mg-treated group): more observed | Ratio of the subjects showing suppression (120 mg-treated group): 14% | Serious adverse events (120 mg-treated group): 2 cases | Change in body temperature, respiration rate, funduscopic examination and slit-lamp microscopy (SM-13496-treated groups): no clinically significant change | Occurrence of dystonic reaction (SM-13496-treated groups): less than 4% | Prolactin level in the blood (SM-13496-treated groups): moderate increase | Number of subjects who dropped out from the trial due to the adverse events compared to placebo (both groups treated by two doses): higher | Occurrence of the adverse events compared to placebo (groups treated by SM-13496): the same as that in the placebo-treated group
